Data on seven compounds can be found in patent US7241787B2, “Substituted N-cycloexylimidazolinones, process for their preparation and their use as medicaments” (Sanofi-Aventis Deutschland GmbH, priority 2004, dated 2007).

pIC50: −log10 of the molar value.

By pIC50 is commonly meant the IC50 on a negative log10 scale, so that one unit is a factor of ten.

T1 sequence (Q99705 whole entry): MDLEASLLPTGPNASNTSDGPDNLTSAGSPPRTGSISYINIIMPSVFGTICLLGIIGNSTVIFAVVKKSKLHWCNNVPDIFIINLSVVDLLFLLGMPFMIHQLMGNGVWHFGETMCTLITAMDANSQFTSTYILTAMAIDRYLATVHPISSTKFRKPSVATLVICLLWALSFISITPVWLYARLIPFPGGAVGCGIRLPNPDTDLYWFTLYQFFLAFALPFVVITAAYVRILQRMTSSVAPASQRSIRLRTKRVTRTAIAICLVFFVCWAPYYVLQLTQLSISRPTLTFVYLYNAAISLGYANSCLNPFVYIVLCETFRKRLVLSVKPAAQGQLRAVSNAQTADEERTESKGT

The assay has as its target T1, human MCH receptor (Homo sapiens, UniProt Q99705).
T1 construct: expressed in transfected cells
Description: Functional measurements of cellular calcium flux (FLIPR) to determine IC50 values. It is filed as cell-based. Particulars: recombinant HEK293 cell line expressing the human MCH receptor, calcium flux after addition of agonist (MCH) in presence of ligand. From the text:
Functional measurements to determine IC50 values
Cloning of the cDNA for the human MCH receptor, preparation of a recombinant HEK293 cell line which expresses the human MCH receptor, and functional measurements with the recombinant cell line took place in analogy to the description by Audinot et al. (J. Biol. Chem. 276, 13554–13562, 2001). A difference from the reference was, however, the use of the plasmid pEAK8 from EDGE Biosystems (USA) for the construction of the expression vector. The host used for the transfection was a transformed HEK cell line named “PEAK Stable Cells” (likewise from EDGE Biosystems). Functional measurements of the cellular calcium flux after addition of agonist (MCH) in the presence of ligand of the invention took place with the aid of the FLIPR apparatus from Molecular Devices (USA), using protocols of the apparatus manufacturer.
Take `O=c1n(-c2ccc(Oc3ccccc3)cc2)ccn1C1CCC(N2CCNCC2)CC1` (stereo not shown) [Example 5]: the negative-log IC50 (pIC50) was 5.70 to 8.00. As for `CC(=O)N[C@@H]1CCN(C2CCC(n3ccn(-c4ccc(Oc5ccccc5)cc4)c3=O)CC2)C1` (stereo partly drawn) [Example 1, (R)-N-(1-{4-[2-oxo-3-(4-phenoxyphenyl)-2,3-dihydroimidazol-1-yl]cyclohexyl}pyrrolidin-3-yl)acetamide], the figure is 5.70 to 8.00; as for `O=c1n(-c2ccc(Oc3ccccc3)cc2)ccn1C1CCC(N2CCN(CCO)CC2)CC1` (stereo not shown) [Example 3], 5.00 to 5.70; as for `O=c1n(-c2ccc(Oc3ccccc3)cc2)ccn1C1CCC(NC2CN3CCC2CC3)CC1` (stereo not shown) [Example 6], 5.00 to 5.70. As for `CN1CCN(C2CCC(n3ccn(-c4ccc(Oc5ccccc5)cc4)c3=O)CC2)CC1` (stereo not shown) [Example 9], the figure is 5.00 to 5.70; as for `O=c1n(-c2ccc(Oc3ccccc3)cc2)ccn1C1CCC(N2CCCNCC2)CC1` (stereo not shown) [Example 8], 5.70 to 8.00; as for `CN(C)CCO[C@H]1CC[C@H](n2ccn(-c3ccc(OC4CCCC4)cc3)c2=O)CC1` [Example 2, Trans-1-(4-cyclopentyloxy-phenyl)-3-[4-(2-dimethylaminoethoxy)cyclohexyl]-1,3-dihydroimidazol-2-one], 5.70 to 8.00.
